Test results taken from US7772156B2, “Microbicidal compositions including a cyanodithiocarbimate and a second microbicide, and methods of using the same” (Buckman Laboratories International, Inc., priority 2006, dated 2010).
“And” between values parts separate entries of the source, which are not always exact repeats. Equal entries are not always repeated.

Columns and labels:
Aspergillus niger = assay: Fungal evaluation: growth prevention of Aspergillus niger in mineral salts-glucose medium, synergism by the method of Kull; assay type: cell-based; details: for X (QA/Qa+QB/Qb), Test 1 / X (QA/Qa+QB/Qb), Test 2 / X (QA/Qa+QB/Qb), Test 3: combination of S-chloromethyl-S'-hexylcyanodithioimidocarbimate (A) with the named second microbicide (B), Aspergillus niger, 7 days, 25° C., X<1 synergistic, X=1 additive, X>1 antagonistic; for QA = lowest concentration of compound A in the mixture which produced an end point: compound A in mixture with the named compound B; for Qb = lowest concentration of compound B acting alone which produced an end point: named compound B alone; for QB = lowest concentration of compound B in the mixture which produced an end point: named compound B in mixture with compound A
Experimental: Mineral salts-glucose medium was used. To prepare the medium, the following ingredients were added to 1 liter of deionized water: 0.7 g of KH2PO4; 0.7 g of MgSO4·7H2O; 1.0 g of HN4NO3; 0.005 g of NaCl; 0.002 g of FeSO4·7H2O; 0.002 g ZnSO4·7H2O; 0.001 g of MnSO4·7H2O; 10 g of Glucose. The pH of the medium was adjusted to 6 with 1N NaOH. The medium was distributed in 5 ml amounts in test tubes and autoclaved at 121° C. for 20 minutes. The fungus, Aspergillus niger, was grown on potato dextrose agar slant for 5 to 10 days and a spore suspension prepared by washing down the spores from the slant into a sterile saline solution. After addition of the biocides in the desired concentrations in the sterile mineral salts-glucose medium, the fungal spore suspension was added. The final spore concentration was approximately 10^6 cfu/ml. The inoculated media was incubated at 25° C. for 7 days. The experimental design is termed a […] in which each test concentration of compound A is combined with each test concentration of compound B.
End points for the various mixtures were then compared with the end points for the pure active ingredients alone in concomitantly prepared flasks or test tubes.
When the sum of QA/Qa and QB/Qb is greater than one, antagonism is indicated. When the sum is equal to one, additivity is indicated. When the sum is less than one, synergism exists.
For: X<1 A and B are synergistic • X=1 A and B are additive • X>1 A and B are antagonistic For combinations of cyanodithiocarbimate with the selected second microbicide, the calculated values of X in each case are: […]

[1] = cited from earlier work
[2] = complete prevention of growth of Aspergillus niger for seven days

Compound | Qa = concentration of compound A acting alone which produced an end point (Aspergillus niger; compound A alone, run concomitantly with the compound B, complete prevention of growth of Aspergillus niger for seven days) | X (QA/Qa+QB/Qb), Test 1 (Aspergillus niger) | X (QA/Qa+QB/Qb), Test 2 (Aspergillus niger) | X (QA/Qa+QB/Qb), Test 3 (Aspergillus niger) | QA = lowest concentration of compound A in the mixture which produced an end point (Aspergillus niger; [2]) [ppm active ingredient] | Qb = lowest concentration of compound B acting alone which produced an end point (Aspergillus niger; [2]) [ppm active ingredient] | QB = lowest concentration of compound B in the mixture which produced an end point (Aspergillus niger; [2]) [ppm active ingredient] | solubility in water [1]
CCCCCCSC(=NC#N)SCCl [Compound A, S-Hexyl-S′-chloromethylcyanodithiocarbimate] | 0.3 ppm active ingredient and 0.25 ppm active ingredient and 0.175 ppm active ingredient and 0.35 ppm active ingredient and 0.2 ppm active ingredient |  |  |  |  |  |  | 
O=C(CBr)c1ccc(O)cc1 [BHAP, 2-bromo-4′-hydroxyacetophenone] |  | 1.22 | 1.0 | 0.8 | 0.3 | >8.0 | 1.0 | 
N#CSCSC#N [MTC, Methylene-bis(thiocyanate)] |  | 0.64 | 0.46 | 0.29 | 0.05 | >0.7 | 0.1 | 
CCCCCCCCn1sc(Cl)c(Cl)c1=O [4,5-dichloro-2-N-octyl-4-isothiazolin-3-one] |  | 0.7 | 0.5 |  | 0.05 | 0.2 | 0.1 | 
O=C(CBr)OC/C=C\COC(=O)CBr [BBAB, 1,4-bis(bromoacetoxy)-2-butene] |  |  |  |  |  |  |  | extremely low
N#CSCSc1nc2ccccc2s1 [TCMTB, 2-(Thiocyanomethylthio)benzothiazole] |  | 0.27 | 0.25 | 0.7 | 0.15 | 1.0 | 0.05 | 
CCCCCCCCn1sccc1=O [2-N-octyl-4-isothiazolin-3-one] |  | 0.64 |  |  | 0.1 | >0.175 | 0.025 | 
CCCCNC(=O)OCC#CI [IPBC, 3-iodo-2-propynyl butyl carbamate] |  | 0.86 | 0.3 |  | 0.025 | 0.35 | 0.05 | 
